According to PubChem BioAssay (NCI):
Where “and” joins values, the source holds several entries; their conditions need not be identical. Equal entries are not always repeated.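 Growth conditions: 96-well plates. Treatment: test compound, 48 hours, 5 concentrations. Analysis: linear interpolation between bracketing concentrations; unreached endpoints set to highest concentration. GI50 is the concentration that inhibits growth by half. The concentration for full growth arrest is given as TGI.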 Where a SMILES comes first, the peptide text is derived from it. [ ]: non-standard residue; d: D form. NMeY = CN[C@@H](Cc1ccc(O)cc1)C(=O)O; dNMeF = CN[C@H](Cc1ccccc1)C(=O)O; Sar = CNCC(=O)O

What follows are compounds tested on MDA-MB-468 breast (assay: growth of human tumour cells (NCI), 48 h).

**Q.** For `C/C(=C(/c1ccc(O)cc1)c1ccc(OCCN2CCCCCC2)cc1)c1ccccc1`, which GI50 is on record?
**A.** The GI50 was 41.2 µM.

**Q.** And the TGI?
**A.** The TGI was > 100 µM.

**Q.** For `Nc1c(C(=O)c2cccc(C#CCN3CCOCC3)c2)cnn1-c1ccc(F)cc1`, which GI50 is on record?
**A.** The GI50 was 9.82 µM.

**Q.** And the TGI?
**A.** The TGI was > 25 µM.

**Q.** `COc1cccc(-n2ncc3c(N/N=C/c4ccc(S(C)(=O)=O)cc4)ncnc32)c1` was tested. Which GI50 did it give?
**A.** Its GI50 is 3.66 µM.

**Q.** What about the TGI of the same compound?
**A.** The TGI was 16.5 µM.

**Q.** With `CC1(C)CC(=O)c2c(ccc(C(=O)C[C@H](N)CO)c2N)O1` as the compound, how does the TGI read?
**A.** Its TGI is 17.5 µM and 5.83 µM.

**Q.** With `CCOC(=O)Cn1c(C)c(/C=N/NC(=O)c2cc3c(ccc4ccccc43)o2)c2ccccc21` as the compound, how does the GI50 read?
**A.** Its GI50 is 0.326 µM.

**Q.** And the TGI?
**A.** Its TGI is 1.34 µM.

**Q.** What does the source list for `CC[C@H](C)[C@@H]1NC(=O)[C@H](Cc2ccc(O)cc2)N(C)C(=O)[C@H](Cc2ccccc2)NC(=O)CN(C)C(=O)[C@@H]2CCCN2C(=O)[C@@H](Cc2ccccc2)N(C)C(=O)[C@H](CC(C)C)NC1=O` (cyclo(F[NMeY]IL[dNMeF]P[Sar]))?
**A.** GI50: 0.367 µM; TGI: 2.82 µM

**Q.** For `COc1ccc(/C=C/C(=O)c2ccc3cc(OC)c(OC)cc3c2)cc1OC`, which GI50 is on record?
**A.** Its GI50 is 2.68 µM.

**Q.** And the TGI?
**A.** The TGI was 10.2 µM.

**Q.** How did the GI50 turn out when `Nc1c(C(=O)c2cccc(CCC3(O)CCCC3)c2)cnn1-c1ccc(F)cc1` was run?
**A.** Its GI50 is 5.97 µM.

**Q.** And the TGI?
**A.** Its TGI is > 25 µM.

**Q.** `CNC(=O)c1cc(-n2ccc3cc(NC(=O)Nc4ccc(N5CCN(C)CC5)c(C(F)(F)F)c4)ccc32)ccn1` was tested. Which GI50 did it give?
**A.** Its GI50 is 3.48 µM.

**Q.** What about the TGI of the same compound?
**A.** The TGI was 7.57 µM.

**Q.** With `CCCCCCCCCCCC[n+]1ccccc1` as the compound, how does the GI50 read?
**A.** The GI50 was 0.252 µM.

**Q.** What about the TGI of the same compound?
**A.** The TGI was 2.02 µM.

**Q.** `C[C@H](Nc1ncnc2ccc(-c3cnc(Cl)c(NS(C)(=O)=O)c3)cc12)c1ccccc1` was tested. Which GI50 did it give?
**A.** The GI50 was 0.111 µM.

**Q.** And the TGI?
**A.** Its TGI is 0.841 µM.

**Q.** Which GI50 does the source give for `C=CC(=O)N1CCC([C@@H]2CCNc3c(C(N)=O)c(-c4ccc(Oc5ccccc5)cc4)nn32)CC1` here?
**A.** The GI50 was 0.057 µM.

**Q.** And the TGI?
**A.** Its TGI is 0.711 µM.

**Q.** With `CN(C)C(=O)c1cc2cnc(Nc3ccc(-c4csc5c(=O)cc(N6CCNCC6)oc45)cc3)nc2n1C1CCCC1` as the compound, how does the GI50 read?
**A.** Its GI50 is 0.482 µM.

**Q.** What about the TGI of the same compound?
**A.** The TGI was 2.53 µM.

**Q.** `O=C(NC(=S)NNC(=S)NNc1ccccc1)c1ccccc1` was tested. Which GI50 did it give?
**A.** The GI50 was 8.92 µM.

**Q.** And the TGI?
**A.** The TGI was > 100 µM.

**Q.** Which results are given for `Cc1cc2c3ccccc3ccc2[n+]2ccccc12`?
**A.** GI50: 0.524 µM; TGI: 2.13 µM

**Q.** Which results are given for `N#CSCc1c(Cl)cccc1Cl`?
**A.** GI50: 3.82 µM; TGI: > 100 µM

**Q.** For `O=C1Nc2cc(Cl)ccc2/C1=C\c1ccc(OCc2ccc(Br)cc2F)cc1`, which GI50 is on record?
**A.** Its GI50 is 2.13 µM.

**Q.** And the TGI?
**A.** Its TGI is 5.21 µM.

**Q.** What does the source list for `C/C(=N\NC(=O)c1ccccc1O)c1cccc(/C(C)=N/NC(=O)c2ccccc2O)n1`?
**A.** GI50: 0.317 µM; TGI: > 100 µM

**Q.** What does the source list for `C#C[C@@]1(O)[C@@H](CO)O[C@@H](n2ccc3c(N)ncnc32)[C@@H]1O`?
**A.** GI50: 1.3 µM; TGI: 3.33 µM

**Q.** How did the GI50 turn out when `Cc1ccc2c(Nc3cccc(Cl)c3F)ncc(NC(=O)c3csc4c(N)ncnc34)c2c1` was run?
**A.** Its GI50 is > 100 µM.

**Q.** And the TGI?
**A.** Its TGI is > 100 µM.

**Q.** Which GI50 does the source give for `Cc1ncc(C(=O)Nc2ccc(CN3CCN(C)CC3)c(C(F)(F)F)c2)cc1C#Cc1cnc(N)c2ncccc12` here?
**A.** The GI50 was 1.1 µM.

**Q.** And the TGI?
**A.** Its TGI is 2.58 µM.

**Q.** Which results are given for `Nc1ccn(C2CC(O)C(CO)O2)c(=O)n1` (configuration not stated)?
**A.** GI50: > 5000 µM; TGI: > 5000 µM

**Q.** `CC[C@H](C)[C@H](NC(=O)Nc1ccccc1)C(=O)N(C)[C@H](C[C@@H](OC(C)=O)c1nc(C(=O)N[C@@H](Cc2ccccc2)C[C@H](C)C(=O)OC)cs1)C(C)C` was tested. Which GI50 did it give?
**A.** The GI50 was 0.514 µM.

**Q.** And the TGI?
**A.** The TGI was 7.22 µM.

**Q.** Which results are given for `CN1CCN(Cc2ccc(NC(=O)c3nc4ccc5[nH]ncc5c4c4c3CCC4)cc2C(F)(F)F)CC1`?
**A.** GI50: 0.936 µM; TGI: 2.08 µM

**Q.** Which GI50 does the source give for `COc1cc(Cn2ccc3c2-c2oncc2CC3)cc(OC)c1` here?
**A.** The GI50 was 0.84 µM.

**Q.** What about the TGI of the same compound?
**A.** Its TGI is 7 µM.

**Q.** Which results are given for `CCOC(=O)c1ccc(Nc2sc(C(=O)c3cccc([N+](=O)[O-])c3)c(N)c2C#N)cc1`?
**A.** GI50: 0.222 µM; TGI: 4.53 µM

**Q.** Which results are given for `N#Cc1cccc(/C=C(/C(=O)c2ccccc2)c2ccccc2)c1`?
**A.** GI50: 2.3 µM; TGI: 7.63 µM

**Q.** What does the source list for `COc1ccc2c(c1)sc1nc(-c3ccccc3)c(-c3ccc(O)c(OC)c3)n12`?
**A.** GI50: 24.4 µM; TGI: > 100 µM

**Q.** With `c1ccc(-c2nnc(Nc3ccc4c(c3)OCCO4)o2)c(NCc2ccncc2)c1` as the compound, how does the GI50 read?
**A.** Its GI50 is 0.0953 µM.

**Q.** And the TGI?
**A.** Its TGI is 0.528 µM.

**Q.** With `CC(=O)OC1CCC2(C)C(CCC3C4CC=C(C(C)=O)C4(C)OC(=O)CC32)C1` (configuration not stated) as the compound, how does the GI50 read?
**A.** Its GI50 is 1.64 µM.

**Q.** And the TGI?
**A.** Its TGI is 3.74 µM.

**Q.** Which results are given for `CC1(C)N=C(N)N=C(N)N1c1cccc(CCCCc2ccccc2)c1`?
**A.** GI50: 0.149 µM; TGI: 13.8 µM

**Q.** `Cc1ccc(N=Nc2c(N)nn(-c3ccccc3)c2N)cc1` was tested. Which GI50 did it give?
**A.** The GI50 was 0.613 µM.

**Q.** What about the TGI of the same compound?
**A.** Its TGI is > 100 µM.

**Q.** For `COc1ccc(-c2cc(-c3cn[nH]c3-c3ccccn3)ccn2)cc1`, which GI50 is on record?
**A.** The GI50 was > 25 µM.

**Q.** What about the TGI of the same compound?
**A.** Its TGI is > 25 µM.

**Q.** What does the source list for `CC1(C)CC(OCCCC[P+](c2ccccc2)(c2ccccc2)c2ccccc2)CC(C)(C)N1O`?
**A.** GI50: 0.331 µM; TGI: 2.87 µM

**Q.** `Cc1ccc(-c2cc3nc(C(Cl)Cl)nc(-c4cccnc4)n3n2)cc1` was tested. Which GI50 did it give?
**A.** Its GI50 is 0.407 µM.

**Q.** And the TGI?
**A.** The TGI was 2.13 µM.

**Q.** With `CO[C@H]1C[C@@H]2CC[C@@H](C)[C@@](O)(O2)C(=O)C(=O)N2CCCC[C@H]2C(=O)O[C@H]([C@H](C)C[C@@H]2CC[C@@H](OP(C)(C)=O)[C@H](OC)C2)CC(=O)[C@H](C)/C=C(\C)[C@@H](O)[C@@H](OC)C(=O)[C@H](C)C[C@H](C)/C=C/C=C/C=C/1C` as the compound, how does the GI50 read?
**A.** Its GI50 is < 0.01 µM.

**Q.** What about the TGI of the same compound?
**A.** The TGI was 17.1 µM.

**Q.** Which GI50 does the source give for `COc1ccc2[nH]c(=O)c(/C=C/C(=O)/C=C/c3ccc(O)c(OC)c3)cc2c1` here?
**A.** Its GI50 is 1.37 µM.

**Q.** And the TGI?
**A.** The TGI was 4.58 µM.

**Q.** Which results are given for `O=C1c2ccccc2-c2n[nH]c3cccc1c23`?
**A.** GI50: 17.3 µM; TGI: > 100 µM

**Q.** Which GI50 does the source give for `ICCC(c1ccccc1)(c1ccccc1)c1ccccc1` here?
**A.** The GI50 was 3.17 µM.

**Q.** What about the TGI of the same compound?
**A.** Its TGI is 13.3 µM.

**Q.** How did the GI50 turn out when `CC1(O)CC2(O)C=CC3=C(C(=O)c4cccc(O)c4C3=O)C2(O)C(=O)C1O` (configuration not stated) was run?
**A.** The GI50 was 0.735 µM.

**Q.** And the TGI?
**A.** Its TGI is 2.09 µM.

**Q.** Which results are given for `ClC1=NC(Cl)C(Cl)=N/C1=N\c1ncn[nH]1` (configuration not stated)?
**A.** GI50: 1.6 µM; TGI: 3.39 µM

**Q.** Which results are given for `O=c1oc2ccc(Cl)cc2c(=O)n1-c1cc(C(F)(F)F)cc(C(F)(F)F)c1`?
**A.** GI50: 0.236 µM; TGI: 0.754 µM

**Q.** Which results are given for `Nc1nc(N)c2c(ccc3nccc32)[nH]1`?
**A.** GI50: 3.28 µM; TGI: 21.3 µM

**Q.** Which GI50 does the source give for `CCN(C(=O)CCl)C(C)(C)C(SSSC(c1ccc(Cl)cc1)C(C)(C)N(CC)C(=O)CCl)c1ccc(Cl)cc1` (configuration not stated) here?
**A.** Its GI50 is 1.97 µM.

**Q.** And the TGI?
**A.** The TGI was 5.39 µM.
